Here are results for one substance from patent publication US20200290034A1, “COMPOSITION AND METHOD FOR REGENERATING CATION EXCHANGE RESINS” (Tygrus, LLC, priority 2019, published 2020).

A short description of data set [1]: Excess hydrogen ion concentration and pH after admixing with water. To be noted: 5 ml material admixed in 5 ml deionized and distilled water, standard temperature and pressure.
Data set [2] is described as follows: Shelf-stability of stored samples. It is filed as physicochemical. The note with it: closed containers at standard temperature and 50% relative humidity. The text has this: The material produced in Example I is separated into individual samples. Some are stored in closed containers at standard temperature and 50% relative humidity to determine shelf-stability. Other samples are subjected to analytical procedures to determine composition. The test samples are subjected to FFTIR spectra analysis and titrated with hydrogen coulometry. The sample material has a molarity ranging from […] strength. The material has a gravimetric range greater than 1.15; with ranges greater than 1.9 in certain instances. The composition is stable and has a 1.87 to 1.78 molar material that contains 8 to 9% of the total moles of acid protons that are not charged balanced.

Turning to “hydrogen (1+), triaqua-μ3-oxotri sulfate (1:1) [Example I]”, in data set [1], the “excess hydrogen ion concentration” value is given as “greater than 15 % by volume” and the pH came out at 1. Moreover, in data set [2], the shelf-stability result is given as “stable”.
